This note sets out measurements from PMC8225628, “Bispecific repurposed medicines targeting the viral and immunological arms of COVID-19” (Scientific Reports, 2021).

In the assay the target is SARS-CoV-2 M^pro (Severe acute respiratory syndrome coronavirus 2, UniProt P0DTD1). As to the kind of experiment: biochemical.
The mark [1] stands for this setting: ReFRAME hits, >5e-6 = not potent enough to determine an IC50, read-out: M^pro IC50.

Several values for one entry are separate records, joined by “and”; a condition that tells them apart may be missing. Equal entries are not always repeated. Where two headings read alike, the source gives them in different places. *1 amine or outer side, *2 acyl side, *3 side chain or, on linkers, in order; H or OH if unused. Where a SMILES comes first, the peptide text is derived from it. Bridges are numbered along the chain shown (N, C = ends). [ ]: non-standard residue; d: D form. The star is where a group is joined. hTyr(3S-OH,4S-OH,3'-OSO3H) = N[C@H](C(=O)O)[C@H](O)[C@@H](O)c1ccc(O)c(OS(=O)(=O)O)c1; Orn(4R-OH,5R-OH) = O=C([C@H](C[C@@H](O)[C@@H](O)N[*:3])N[*:1])[*:2]; Pro(3S-OH,4S-Me) = C[C@H]1CN[C@H](C(=O)O)[C@H]1O; X1 = CCCCCOc1ccc(-c2cc(-c3ccc(C(=O)*)cc3)no2)cc1; Gln(3R-OH) = NC(=O)C[C@@H](O)[C@H](N)C(=O)O; Hyp = O=C(O)[C@@H]1C[C@@H](O)CN1 Where only a bound is given, the exact number is not on record here.

On to (-)-epicatechin gallate, for which the “M^pro % inhibition at 10 µM” value (ReFRAME hits, 10 µM) was 46%. In addition, the IC50 under setting [1] was > 5 µM.

Turning to `O=C(N/N=C/c1ccc([N+](=O)[O-])o1)c1cc([N+](=O)[O-])cc([N+](=O)[O-])c1O` [nifursol], where the note is “read-out: M^pro IC50”, the IC50 was > 5 µM.

For the compound `CC(=O)[O][Hg][c]1cc(C(C)(C)CC(C)(C)C)ccc1O` [acetomeroctol], the “M^pro % inhibition at 10 µM” value was found to be 79%. Also, the IC50 (read-out: M^pro IC50) was > 5 µM.

Consider `CC(C)[C@H](NC(=O)OCc1ccccc1)C(=O)N[C@@H](C)C(=O)N[C@@H](CC(=O)O)C(=O)COC(=O)c1c(Cl)cccc1Cl` [Compound 5], for which, under “at 100 µM”, the inhibition at 100 µM turned out to be 50%.

As to teicoplanin [reference compound], for the setting “ReFRAME hits, 10 µM”, the “M^pro % inhibition at 10 µM” value was 73% and 40%. Further, the IC50 under setting [1] is > 5 µM.

Turning to `CCCCCOc1ccc(-c2cc(-c3ccc(C(=O)N[C@H]4C[C@@H](O)[C@@H](O)NC(=O)[C@@H]5[C@@H](O)[C@@H](C)CN5C(=O)[C@H]([C@H](O)CC(N)=O)NC(=O)[C@H]([C@H](O)[C@@H](O)c5ccc(O)c(OS(=O)(=O)[O-])c5)NC(=O)[C@@H]5C[C@@H](O)CN5C(=O)[C@H]([C@@H](C)O)NC4=O)cc3)no2)cc1.[Na+]` [micafungin Sodium, reference compound] (X1-[Orn(4R-OH,5R-OH)]T[Hyp][hTyr(3S-OH,4S-OH,3'-OSO3H)][Gln(3R-OH)][Pro(3S-OH,4S-Me)]; lactam 1-C), the “M^pro % inhibition at 10 µM” value (ReFRAME hits, 10 µM) was determined as 50%. Further, the IC50 under setting [1] was > 5 µM.

Turning to `CN1CCCN=C1/C=C/c1cccs1` [Pyrantel pamoate, reference compound], the IC50 came out at 4 µM.

Consider `O=c1cc(-c2ccc(O)c(-c3c(O)cc(O)c4c(=O)cc(-c5ccc(O)cc5)oc34)c2)oc2cc(O)cc(O)c12` [amentoflavone], for which, for the setting “read-out: M^pro IC50”, the IC50 is > 5 µM.

In turn, `O=C1OC2(c3ccccc31)c1cc(I)c(O)c(I)c1Oc1c2cc(I)c(O)c1I` [erythrosine] returned an IC50 of 4 µM.

Take `CC(=O)N[C@@H](Cc1ccc(O)cc1)C(=O)N[C@H](C(=O)N[C@@H](C)C(=O)N[C@@H](CC(=O)O)C(=O)COC(=O)c1c(C)cccc1C)C(C)C` [Compound 6, Ac-YVAD-AOM, reference compound]: the “Inhibition of M^pro (in words)” value was “did not substantially inhibit”.

With `Cc1cc(O)c2c(=O)c3c(O)cc(O)c4c5c(O)cc(O)c6c(=O)c7c(O)cc(C)c8c1c2c(c34)c(c78)c65` [hypericin], the inhibition at 10 µM (read-out: M^pro % inhibition at 10 µM, ReFRAME hits, 10 µM) worked out at 71%. Moreover, the half-inhibitory concentration (IC50) (read-out: M^pro IC50) was 4 µM.

As for `Nc1nc(N)nc(Nc2ccc([As]3SC(C(=O)O)C(C(=O)O)S3)cc2)n1` (stereo not drawn) [MELARSONYL], the “M^pro % inhibition at 10 µM” value stood at 99%. The IC50 (read-out: M^pro IC50) came out at 1 µM.

With `CN1CCCN=C1/C=C/c1cccc(O)c1` [oxantel (pamoate), reference compound], under setting [1], the IC50 is 4 µM.

For the compound `CN1CCCN=C1/C=C/c1cccc(O)c1.O=C(O)c1cc2ccccc2c(Cc2c(O)c(C(=O)O)cc3ccccc23)c1O` [oxantel (pamoate), reference compound], the “M^pro % inhibition at 10 µM” value (ReFRAME hits, 10 µM) came out at 77%.

For [(-)-epicatechin], where the note is “ReFRAME hits, 10 µM”, the “M^pro % inhibition at 10 µM” value amounted to 48%. Further, under setting [1], the IC50 is > 5 µM.

For the compound `[Cl][Hg][Cl]` [mercuric chloride], under “ReFRAME hits, 10 µM”, the “M^pro % inhibition at 10 µM” value was 89%. The IC50 under setting [1] was > 5 µM.
